Source: PubChem BioAssay (NCI)
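1) Cells in 96-well plates. 2) Compound, 48 h, 5 concentrations. 3) Linear interpolation between surrounding doses. 4) Unreached endpoint = highest concentration. At the TGI there is no net growth.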

Columns and labels:
Test in all cases: NCI tumour cell line growth inhibition, 48 h
HCC-2998 colon = test system: HCC-2998 colon
RXF-631 renal = test system: RXF-631 renal
NCI-H226 lung = test system: NCI-H226 lung
XF 498 CNS = test system: XF 498 CNS
MOLT-4 leukemia = test system: MOLT-4 leukemia
ACHN renal = test system: ACHN renal
CAKI-1 renal = test system: CAKI-1 renal
KM12 colon = test system: KM12 colon
CCRF-CEM leukemia = test system: CCRF-CEM leukemia
NCI-H460 lung = test system: NCI-H460 lung
786-0 renal = test system: 786-0 renal
UO-31 renal = test system: UO-31 renal
DMS 273 small cell lung = test system: DMS 273 small cell lung
SK-MEL-2 melanoma = test system: SK-MEL-2 melanoma
OVCAR-3 ovarian = test system: OVCAR-3 ovarian
SNB-75 CNS = test system: SNB-75 CNS
A549 NSCLC = test system: A549 NSCLC
SW-620 colon = test system: SW-620 colon
HOP-92 NSCLC = test system: HOP-92 NSCLC
TK-10 renal = test system: TK-10 renal
UACC-62 melanoma = test system: UACC-62 melanoma
HCT-15 colon = test system: HCT-15 colon
OVCAR-5 ovarian = test system: OVCAR-5 ovarian
UACC-257 melanoma = test system: UACC-257 melanoma
LOX IMVI melanoma = test system: LOX IMVI melanoma
NCI-H522 lung = test system: NCI-H522 lung
A498 renal = test system: A498 renal
SN12C renal = test system: SN12C renal
OVCAR-8 ovarian = test system: OVCAR-8 ovarian
IGROV1 ovarian = test system: IGROV1 ovarian
SNB-78 CNS = test system: SNB-78 CNS
SK-MEL-28 melanoma = test system: SK-MEL-28 melanoma
DLD-1 colon = test system: DLD-1 colon
MALME-3M melanoma = test system: MALME-3M melanoma
U251 CNS = test system: U251 CNS
EKVX NSCLC = test system: EKVX NSCLC
HOP-62 NSCLC = test system: HOP-62 NSCLC
DMS 114 small cell lung = test system: DMS 114 small cell lung
SF-539 CNS = test system: SF-539 CNS
HCT-116 colon = test system: HCT-116 colon
M19-MEL melanoma = test system: M19-MEL melanoma
OVCAR-4 ovarian = test system: OVCAR-4 ovarian
SK-OV-3 ovarian = test system: SK-OV-3 ovarian
SK-MEL-5 melanoma = test system: SK-MEL-5 melanoma
LXFL 529 NSCLC = test system: LXFL 529 NSCLC
COLO 205 colon = test system: COLO 205 colon
RPMI-8226 leukemia = test system: RPMI-8226 leukemia
K-562 leukemia = test system: K-562 leukemia
KM20L2 colon = test system: KM20L2 colon
SF-268 CNS = test system: SF-268 CNS
M14 melanoma = test system: M14 melanoma
SNB-19 CNS = test system: SNB-19 CNS
NCI-H23 lung = test system: NCI-H23 lung
HT29 colon = test system: HT29 colon
HOP-18 NSCLC = test system: HOP-18 NSCLC
SR leukemia = test system: SR leukemia
HL-60(TB) leukemia = test system: HL-60(TB) leukemia
RXF 393 renal = test system: RXF 393 renal
SF-295 CNS = test system: SF-295 CNS

Nc1ccc(N)c2c1C(=O)c1ccccc1C2=O
TGI (HCC-2998 colon): 72.9 µM | TGI (RXF-631 renal): > 100 µM | TGI (NCI-H226 lung): > 100 µM | TGI (XF 498 CNS): > 100 µM | TGI (MOLT-4 leukemia): > 100 µM | TGI (ACHN renal): > 100 µM | TGI (CAKI-1 renal): > 100 µM | TGI (KM12 colon): > 100 µM | TGI (CCRF-CEM leukemia): > 100 µM | TGI (NCI-H460 lung): > 100 µM | TGI (786-0 renal): > 100 µM | TGI (UO-31 renal): > 100 µM | TGI (DMS 273 small cell lung): > 100 µM | TGI (SK-MEL-2 melanoma): > 100 µM | TGI (OVCAR-3 ovarian): > 100 µM | TGI (SNB-75 CNS): > 100 µM | TGI (A549 NSCLC): > 100 µM | TGI (SW-620 colon): > 100 µM | TGI (HOP-92 NSCLC): > 100 µM | TGI (TK-10 renal): 94 µM | TGI (UACC-62 melanoma): > 100 µM | TGI (HCT-15 colon): > 100 µM | TGI (OVCAR-5 ovarian): > 100 µM | TGI (UACC-257 melanoma): > 100 µM | TGI (LOX IMVI melanoma): > 100 µM | TGI (NCI-H522 lung): > 100 µM | TGI (A498 renal): > 100 µM | TGI (SN12C renal): > 100 µM | TGI (OVCAR-8 ovarian): > 100 µM | TGI (IGROV1 ovarian): > 100 µM | TGI (SNB-78 CNS): > 100 µM | TGI (SK-MEL-28 melanoma): > 100 µM | TGI (DLD-1 colon): > 100 µM | TGI (MALME-3M melanoma): > 100 µM | TGI (U251 CNS): > 100 µM | TGI (EKVX NSCLC): > 100 µM | TGI (HOP-62 NSCLC): > 100 µM | TGI (DMS 114 small cell lung): > 100 µM | TGI (SF-539 CNS): > 100 µM | TGI (HCT-116 colon): > 100 µM | TGI (M19-MEL melanoma): > 100 µM | TGI (OVCAR-4 ovarian): > 100 µM | TGI (SK-OV-3 ovarian): > 100 µM | TGI (SK-MEL-5 melanoma): > 100 µM | TGI (LXFL 529 NSCLC): > 100 µM | TGI (COLO 205 colon): > 100 µM | TGI (RPMI-8226 leukemia): > 100 µM | TGI (K-562 leukemia): > 100 µM | TGI (KM20L2 colon): > 100 µM | TGI (SF-268 CNS): > 100 µM | TGI (M14 melanoma): > 100 µM | TGI (SNB-19 CNS): > 100 µM | TGI (NCI-H23 lung): > 100 µM | TGI (HT29 colon): > 100 µM | TGI (HOP-18 NSCLC): > 100 µM

Cn1cnc2[nH]c(=O)[nH]c(=S)c21
TGI (HCC-2998 colon): > 100 µM | TGI (RXF-631 renal): > 100 µM | TGI (NCI-H226 lung): > 100 µM | TGI (SR leukemia): > 100 µM | TGI (XF 498 CNS): > 100 µM | TGI (MOLT-4 leukemia): > 100 µM | TGI (ACHN renal): > 100 µM | TGI (CAKI-1 renal): > 100 µM | TGI (KM12 colon): > 100 µM | TGI (CCRF-CEM leukemia): > 100 µM | TGI (NCI-H460 lung): > 100 µM | TGI (786-0 renal): > 100 µM | TGI (UO-31 renal): > 100 µM | TGI (HL-60(TB) leukemia): > 100 µM | TGI (DMS 273 small cell lung): > 100 µM | TGI (SK-MEL-2 melanoma): > 100 µM | TGI (OVCAR-3 ovarian): > 100 µM | TGI (SNB-75 CNS): > 100 µM | TGI (RXF 393 renal): > 100 µM | TGI (A549 NSCLC): > 100 µM | TGI (SW-620 colon): > 100 µM | TGI (HOP-92 NSCLC): > 100 µM | TGI (TK-10 renal): > 100 µM | TGI (UACC-62 melanoma): > 100 µM | TGI (HCT-15 colon): > 100 µM | TGI (OVCAR-5 ovarian): > 100 µM | TGI (UACC-257 melanoma): > 100 µM | TGI (NCI-H522 lung): > 100 µM | TGI (A498 renal): > 100 µM | TGI (SN12C renal): > 100 µM | TGI (OVCAR-8 ovarian): > 100 µM | TGI (IGROV1 ovarian): > 100 µM | TGI (SNB-78 CNS): > 100 µM | TGI (DLD-1 colon): > 100 µM | TGI (MALME-3M melanoma): > 100 µM | TGI (U251 CNS): > 100 µM | TGI (EKVX NSCLC): > 100 µM | TGI (HOP-62 NSCLC): > 100 µM | TGI (DMS 114 small cell lung): > 100 µM | TGI (SF-539 CNS): > 100 µM | TGI (HCT-116 colon): > 100 µM | TGI (M19-MEL melanoma): > 100 µM | TGI (OVCAR-4 ovarian): > 100 µM | TGI (SK-OV-3 ovarian): > 100 µM | TGI (SK-MEL-5 melanoma): > 100 µM | TGI (LXFL 529 NSCLC): > 100 µM | TGI (COLO 205 colon): > 100 µM | TGI (RPMI-8226 leukemia): > 100 µM | TGI (K-562 leukemia): > 100 µM | TGI (KM20L2 colon): > 100 µM | TGI (SF-268 CNS): > 100 µM | TGI (M14 melanoma): > 100 µM | TGI (SNB-19 CNS): > 100 µM | TGI (NCI-H23 lung): > 100 µM | TGI (SF-295 CNS): > 100 µM | TGI (HT29 colon): > 100 µM | TGI (HOP-18 NSCLC): > 100 µM
